Experimental data from BigSolDB 2.1.

## O=c1cc(-c2ccccc2)oc2c1ccc1ccccc12
In 1,4-dioxane, 288.15 K
  solubility (mole fraction): 0.0128
In 1,4-dioxane, 293.15 K
  solubility (mole fraction): 0.0158
In 1,4-dioxane, 298.15 K
  solubility (mole fraction): 0.019
In 1,4-dioxane, 303.15 K
  solubility (mole fraction): 0.0223
In 1,4-dioxane, 308.15 K
  solubility (mole fraction): 0.0259
In 1,4-dioxane, 313.15 K
  solubility (mole fraction): 0.0307
In 1,4-dioxane, 318.15 K
  solubility (mole fraction): 0.0363
In acetone, 273.15 K
  solubility (mole fraction): 0.00209
In acetone, 278.15 K
  solubility (mole fraction): 0.00273
In acetone, 283.15 K
  solubility (mole fraction): 0.00326
In acetone, 288.15 K
  solubility (mole fraction): 0.00392
In acetone, 293.15 K
  solubility (mole fraction): 0.00466
In acetone, 298.15 K
  solubility (mole fraction): 0.00546
In acetone, 303.15 K
  solubility (mole fraction): 0.00636
In acetone, 308.15 K
  solubility (mole fraction): 0.00736
In acetone, 313.15 K
  solubility (mole fraction): 0.00846
In acetone, 318.15 K
  solubility (mole fraction): 0.00963
In acetonitrile, 273.15 K
  solubility (mole fraction): 0.000628
In acetonitrile, 278.15 K
  solubility (mole fraction): 0.000846
In acetonitrile, 283.15 K
  solubility (mole fraction): 0.00105
In acetonitrile, 288.15 K
  solubility (mole fraction): 0.00126
In acetonitrile, 293.15 K
  solubility (mole fraction): 0.0015
In acetonitrile, 298.15 K
  solubility (mole fraction): 0.00176
In acetonitrile, 303.15 K
  solubility (mole fraction): 0.00204
In acetonitrile, 308.15 K
  solubility (mole fraction): 0.00242
In acetonitrile, 313.15 K
  solubility (mole fraction): 0.00291
In acetonitrile, 318.15 K
  solubility (mole fraction): 0.0034
In cyclohexane, 283.15 K
  solubility (mole fraction): 0.000138
In cyclohexane, 288.15 K
  solubility (mole fraction): 0.000189
In cyclohexane, 293.15 K
  solubility (mole fraction): 0.000246
In cyclohexane, 298.15 K
  solubility (mole fraction): 0.00031
In cyclohexane, 303.15 K
  solubility (mole fraction): 0.000391
In cyclohexane, 308.15 K
  solubility (mole fraction): 0.000477
In cyclohexane, 313.15 K
  solubility (mole fraction): 0.000573
In cyclohexane, 318.15 K
  solubility (mole fraction): 0.000694
In ethanol, 273.2 K
  solubility (mole fraction): 0.000306
In ethanol, 278.2 K
  solubility (mole fraction): 0.000475
In ethanol, 283.2 K
  solubility (mole fraction): 0.000677
In ethanol, 288.2 K
  solubility (mole fraction): 0.000892
In ethanol, 293.2 K
  solubility (mole fraction): 0.00113
In ethanol, 298.2 K
  solubility (mole fraction): 0.00136
In ethanol, 303.2 K
  solubility (mole fraction): 0.00163
In ethanol, 308.2 K
  solubility (mole fraction): 0.00197
In ethanol, 313.2 K
  solubility (mole fraction): 0.00235
In ethanol, 318.2 K
  solubility (mole fraction): 0.00277
In ethyl acetate, 273.15 K
  solubility (mole fraction): 0.00271
In ethyl acetate, 278.15 K
  solubility (mole fraction): 0.00331
In ethyl acetate, 283.15 K
  solubility (mole fraction): 0.00391
In ethyl acetate, 288.15 K
  solubility (mole fraction): 0.00461
In ethyl acetate, 293.15 K
  solubility (mole fraction): 0.00532
In ethyl acetate, 298.15 K
  solubility (mole fraction): 0.00614
In ethyl acetate, 303.15 K
  solubility (mole fraction): 0.0071
In ethyl acetate, 308.15 K
  solubility (mole fraction): 0.00824
In ethyl acetate, 313.15 K
  solubility (mole fraction): 0.00948
In ethyl acetate, 318.15 K
  solubility (mole fraction): 0.0109
In isobutanol, 273.15 K
  solubility (mole fraction): 0.000861
In isobutanol, 278.15 K
  solubility (mole fraction): 0.00118
In isobutanol, 283.15 K
  solubility (mole fraction): 0.00153
In isobutanol, 288.15 K
  solubility (mole fraction): 0.0019
In isobutanol, 293.15 K
  solubility (mole fraction): 0.00231
In isobutanol, 298.15 K
  solubility (mole fraction): 0.00279
In isobutanol, 303.15 K
  solubility (mole fraction): 0.00331
In isobutanol, 308.15 K
  solubility (mole fraction): 0.00396
In isobutanol, 313.15 K
  solubility (mole fraction): 0.00475
In isobutanol, 318.15 K
  solubility (mole fraction): 0.00554
In isopropanol, 273.2 K
  solubility (mole fraction): 0.000474
In isopropanol, 278.2 K
  solubility (mole fraction): 0.000676
In isopropanol, 283.2 K
  solubility (mole fraction): 0.00085
In isopropanol, 288.2 K
  solubility (mole fraction): 0.00105
In isopropanol, 293.2 K
  solubility (mole fraction): 0.00127
In isopropanol, 298.2 K
  solubility (mole fraction): 0.00153
In isopropanol, 303.2 K
  solubility (mole fraction): 0.00181
In isopropanol, 308.2 K
  solubility (mole fraction): 0.0022
In isopropanol, 313.2 K
  solubility (mole fraction): 0.00265
In isopropanol, 318.2 K
  solubility (mole fraction): 0.00313
In methanol, 273.2 K
  solubility (mole fraction): 0.000712
In methanol, 278.2 K
  solubility (mole fraction): 0.000934
In methanol, 283.2 K
  solubility (mole fraction): 0.00119
In methanol, 288.2 K
  solubility (mole fraction): 0.00144
In methanol, 293.2 K
  solubility (mole fraction): 0.00171
In methanol, 298.2 K
  solubility (mole fraction): 0.00203
In methanol, 303.2 K
  solubility (mole fraction): 0.00238
In methanol, 308.2 K
  solubility (mole fraction): 0.00277
In methanol, 313.2 K
  solubility (mole fraction): 0.00335
In methanol, 318.2 K
  solubility (mole fraction): 0.00398
In n-butanol, 273.15 K
  solubility (mole fraction): 0.00106
In n-butanol, 278.15 K
  solubility (mole fraction): 0.00149
In n-butanol, 283.15 K
  solubility (mole fraction): 0.00194
In n-butanol, 288.15 K
  solubility (mole fraction): 0.00244
In n-butanol, 293.15 K
  solubility (mole fraction): 0.00291
In n-butanol, 298.15 K
  solubility (mole fraction): 0.00346
In n-butanol, 303.15 K
  solubility (mole fraction): 0.00412
In n-butanol, 308.15 K
  solubility (mole fraction): 0.00487
In n-butanol, 313.15 K
  solubility (mole fraction): 0.00575
In n-butanol, 318.15 K
  solubility (mole fraction): 0.00673
In n-propanol, 273.2 K
  solubility (mole fraction): 0.000773
In n-propanol, 278.2 K
  solubility (mole fraction): 0.00105
In n-propanol, 283.2 K
  solubility (mole fraction): 0.0014
In n-propanol, 288.2 K
  solubility (mole fraction): 0.00178
In n-propanol, 293.2 K
  solubility (mole fraction): 0.00218
In n-propanol, 298.2 K
  solubility (mole fraction): 0.00261
In n-propanol, 303.2 K
  solubility (mole fraction): 0.0031
In n-propanol, 308.2 K
  solubility (mole fraction): 0.00364
In n-propanol, 313.2 K
  solubility (mole fraction): 0.00424
In n-propanol, 318.2 K
  solubility (mole fraction): 0.005
In toluene, 273.15 K
  solubility (mole fraction): 0.00423
In toluene, 278.15 K
  solubility (mole fraction): 0.00517
In toluene, 283.15 K
  solubility (mole fraction): 0.00623
In toluene, 288.15 K
  solubility (mole fraction): 0.00735
In toluene, 293.15 K
  solubility (mole fraction): 0.00862
In toluene, 298.15 K
  solubility (mole fraction): 0.01
In toluene, 303.15 K
  solubility (mole fraction): 0.0116
In toluene, 308.15 K
  solubility (mole fraction): 0.0136
In toluene, 313.15 K
  solubility (mole fraction): 0.0155
In toluene, 318.15 K
  solubility (mole fraction): 0.0178
